In one assay the target is c-kit mutant D816V (Homo sapiens (Human), UniProt P10721, D816V/DEL694-753). The assay is described as follows: c-Kit mutant D816V biochemical assay (AlphaScreen kinase activity). On the procedure:
The c-kit mutant D816V (or kinase domain thereof) is an active kinase in AlphaScreen. IC50 values are determined with respect to inhibition of c-Kit mutant D816V kinase activity, where inhibition of phosphorylation of a peptide substrate is measured as a function of compound concentration. Compounds to be tested were dissolved in DMSO to a concentration of 30 mM. These were diluted […] of DMSO (4 mM) and 1 μl was added to an assay plate. These were then serially diluted 1:3 (50 μl to […] DMSO) for a total of 8 points. Plates were prepared such that each kinase reaction is […] in 1× kinase buffer (25 mM HEPES, pH 7.2, 8 mM MgCl2, 2 mM MnCl2, 50 mM NaCl, 0.01% Brij, 1 mM DTT, 0.01% BSA), 5% DMSO and 10 μM ATP. Substrate was 30 nM biotin-(E4Y)10 (EMD Millipore, Cat#12-440). C-kit mutant D816V kinase was at 0.75 ng per sample. After incubation of the kinase reaction for 30 minutes at room temperature, 5 μl of donor beads (Streptavidin coated beads (Perkin Elmer Life Science) final concentration 7.5 μg/ml) in stop buffer (25 mM Hepes pH 7.5, 100 mM EDTA, 0.01% BSA) was added, the sample was mixed and incubated for 30 minutes at room temperature before adding […] of acceptor beads (PY30 coated beads (Perkin Elmer Life Science) final concentration 7.5 μg/ml) in stop buffer. The samples were incubated for 60 minutes at room temperature and the signal per well was read on EnVision reader. Phosphorylated substrate results in binding of the PY30 antibody and association of the donor and acceptor beads such that signal correlates with kinase activity. The signal vs. compound concentration was used to determine the IC50.
Recombinant c-kit mutant D816V (residues 551-934, kinase insertion domain residues 694-753 deleted) with a 6×-histidine N-terminal tag (SEQ ID NO: 3) was expressed in E. coli Arctic Express (DE3) RIL (Stratagene). Cells were grown in Terrific Broth (TB) media to an OD600 of 0.6 at 37° C. at which temperature was reduced to 10° C., protein was induced with 1.0 mM IPTG for 18 hours and harvested by centrifugation at 8000×g for 30 minutes. Cells were re-suspended in 0.1M KPO4 pH 8.0, 250 mM NaCl, 10% Glycerol, 0.75% NP-40, 25 mM Imidazole, 5 mM BME with 0.2 mg/ml Lysosyme, 2.0 mM PMSF, 25 μg/ml DNAse I, incubated in ice for 30 minutes and lyzed with a cell disruptor (MicroFluidics). The lysate was clarified by centrifugation at 30,000×g for 2 hours. The protein was captured with Talon resin (Clontech). Contaminating proteins were washed off with 25 mM Tris-HCl pH 8.3, 250 mM NaCl, 15% Glycerol, 1% Triton X-100, and protein eluted using 100 mM EDTA. The protein was further purified using Gel Filtration column 26/600 Superdex 300 (GE) in 50 mM Tris-HCl , pH 8.0, 250 mM NaCl, 15% Glycerol, 5 mM BME. The protein was aliquoted and flash-frozen in liquid Nitrogen.

For assay [1], the system named is BaF3-FL KIT D816V or BaF3-FL KIT V560G/D816V cell line. The assay is described as follows: Cell-based assays of c-Kit mutant kinase activity (cell proliferation, ATPlite). The settings on record: at least one of the c-kit cell assays of Example 7. Here is the method:
The c-Kit mutant D816V inhibitors were assessed using an engineered BaF3-FL KIT D816V or BaF3-FL KIT V560G/D816V cell line. The BaF3-FL KIT D816V cell lines were created by introduction of KIT mutant (D816V) full length constructs that render the cells dependent on the introduced kinase for growth. Inhibitors of c-Kit mutant D816V kinase reduce or eliminate the mediated c-kit mutant D816V kinase activation, resulting in reduced cell proliferation of the BaF3-FL Kit mutant D816V cells. This inhibition is measured by the effect of compound concentration on cell growth to assess IC50 values. BaF3-FL KIT D816V cells were seeded at 1×10^4 cells per well of a 96 well cell culture plate in 50 μl of cell culture medium of RPMI Medium 1× (Invitrogen #11875-093) supplemented with 10% FBS (Invitrogen #10438), 1% Non Essential Amino Acids (Invitrogen #11140), 1% Penicillin Streptomycin (Invitrogen #15140), 1% L-Glutamine (Invitrogen #25030-081). Compounds were dissolved in DMSO at a concentration of 5 mM and were serially diluted 1:3 for a total of eight points and added to the cells to a final maximum concentration of 10 μM in 100 μl cell culture medium (final concentration 0.2% DMSO). Cells were also treated with Dasatinib as a positive control. The cells were incubated at 37° C., 5% CO2 for three days. ATPlite Buffer (Perkin Elmer #6016739) and substrate were equilibrated to room temperature, and enzyme/substrate Recombinant Firefly Luciferase/D-Luciferin was reconstituted. The cell plates were equilibrated to room temperature for 30 minutes, then lysed by addition of 25 μL per well of the ATPlite Reagent. The plate was mixed for 5 minutes on a plate shaker to lyse the cells. The plates were read on a Tecan Safire using Luminescence protocol modified to read 0.1s per well. The luminescence reading assesses the ATP content, which correlates directly with cell number such that the reading as a function of compound concentration is used to determine the IC50 value.
Plasmids P75635 and P75565 were engineered for mammalian cell expression. In both plasmids, full-length human v-kit Hardy-Zuckerman 4 feline sarcoma viral oncogene homolog gene (NCBI accession NM_000222, KIT, residues M1-V976) was subcloned into the pCI-Neo vector (Promega E1841). Plasmid P75635 contains the mutation of residue Aspartic acid 816 to Valine. Plasmid P75565 contains the double mutation of residues Valine 560 to Glycine and Aspartic acid 816 to Valine. The pCI-neo Mammalian Expression Vector carries the human cytomegalovirus (CMV) immediate-early enhancer/promoter region to promote constitutive expression of KIT and contains the neomycin phosphotransferase gene, a selectable marker.
It is understood that the results of these assays may vary as assay conditions are varied. Inhibition levels determined under the conditions described herein represent a relative activity for the compounds tested under the specific conditions employed. The cell based assays are likely to show variability due to the complexity of the system and the sensitivity thereof to any changes in the assay conditions. […] In some instances, the compounds were not tested in all of the assays, or assay results were not valid.
Background: ATP-based viability assays read luminescence as a measure of living cells.

Molecules are shown by their SMILES.

Sequence of c-kit mutant D816V (P10721 other isoform, or with tags, fused parts or gaps D816V/del 694-753): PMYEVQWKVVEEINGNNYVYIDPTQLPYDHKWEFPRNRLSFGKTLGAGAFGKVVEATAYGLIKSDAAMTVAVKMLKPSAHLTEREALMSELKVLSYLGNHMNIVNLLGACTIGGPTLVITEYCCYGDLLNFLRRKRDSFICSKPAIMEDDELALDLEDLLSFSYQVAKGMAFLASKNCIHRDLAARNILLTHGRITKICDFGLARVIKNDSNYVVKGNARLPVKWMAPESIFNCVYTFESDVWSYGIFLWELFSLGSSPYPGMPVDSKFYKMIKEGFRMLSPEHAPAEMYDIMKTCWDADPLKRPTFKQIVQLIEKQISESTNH

As usually defined, the IC50 is the midpoint of a concentration-inhibition curve. The low end stands for inhibition by little substance, the high end for a need for much substance. For the compound `COc1cc(-c2cc3c(N4CCC(c5nc(C)c(-c6ccc(F)cc6)[nH]5)CC4)ncnc3[nH]2)ccn1` [P-3007, 4-[4-[5-(4-fluorophenyl)-4-methyl-1H-imidazol-2-yl]-1-piperidyl]-6-(2-methoxy-4-pyridyl)-7H-pyrrolo[2,3-d]pyrimidine], the IC50 was 0.0001 to 1 µM against c-kit mutant D816V and under 10 µM in assay [1].

As for `COc1cc(-c2cc3c(N4CCC(c5nc(C6CC6)c(-c6ccccc6)[nH]5)CC4)ncnc3[nH]2)ccn1` [P-3008, 4-[4-(4-cyclopropyl-5-phenyl-1H-imidazol-2-yl)-1-piperidyl]-6-(2-methoxy-4-pyridyl)-7H-pyrrolo[2,3-d]pyrimidine], the IC50 is 0.0001 to 1 µM at c-kit mutant D816V and under 10 µM in assay [1].

`Fc1ccc(-c2cc3c(N4CCC(c5nc(C6CC6)c(-c6ccccc6)[nH]5)CC4)ncnc3[nH]2)cc1` [P-3009, 4-[4-(4-cyclopropyl-5-phenyl-1H-imidazol-2-yl)-1-piperidyl]-6-(4-fluorophenyl)-7H-pyrrolo[2,3-d]pyrimidine]: the IC50 at c-kit mutant D816V was 0.0001 to 1 µM; in assay [1], under 10 µM.

On to `N#Cc1ccc(-c2cc3c(N4CCC(c5nc(C6CC6)c(-c6ccccc6)[nH]5)CC4)ncnc3[nH]2)cc1` [P-3010, 4-[4-[4-(4-cyclopropyl-5-phenyl-1H-imidazol-2-yl)-1-piperidyl]-7H-pyrrolo[2,3-d]pyrimidin-6-yl]benzonitrile], for which the half-inhibitory concentration (IC50) against c-kit mutant D816V was 0.0001 to 1 µM; in assay [1], under 10 µM.

For `Cc1nc(C2CCN(c3ncnc4[nH]c(-c5ccc(F)cc5)cc34)CC2)[nH]c1-c1cccc(OC(F)(F)F)c1` [P-3011, 6-(4-fluorophenyl)-4-[4-[4-methyl-5-[3-(trifluoromethoxy)phenyl]-1H-imidazol-2-yl]-1-piperidyl]-7H-pyrrolo[2,3-d]pyrimidine], the figures for the IC50 (on c-kit mutant D816V; in assay [1]) were 0.0001 to 1 µM and under 10 µM, respectively.

As for `CCOc1cc(-c2[nH]c(C3CCN(c4ncnc5[nH]c(-c6ccc(C#N)cc6)cc45)CC3)nc2C)ccc1C` [P-3095, 4-[4-[4-[5-(3-ethoxy-4-methyl-phenyl)-4-methyl-1H-imidazol-2-yl]-1-piperidyl]-7H-pyrrolo[2,3-d]pyrimidin-6-yl]benzonitrile], the IC50 is 0.0001 to 1 µM against c-kit mutant D816V and under 10 µM in assay [1].

On to `CCOc1cc(-c2[nH]c(C3CCN(c4ncnc5[nH]c(-c6ccnc(OC)c6)cc45)CC3)nc2C)ccc1C` [P-3096, 4-[4-[5-(3-ethoxy-4-methyl-phenyl)-4-methyl-1H-imidazol-2-yl]-1-piperidyl]-6-(2-methoxy-4-pyridyl)-7H-pyrrolo[2,3-d]pyrimidine], for which the IC50 against c-kit mutant D816V was 0.0001 to 1 µM; in assay [1] it was under 10 µM.

For the compound `Cc1nc(C2CCN(c3ncnc4[nH]c(-c5ccnc(C(F)(F)F)c5)cc34)CC2)[nH]c1-c1ccccc1` [P-3097, 4-[4-(4-methyl-5-phenyl-1H-imidazol-2-yl)-1-piperidyl]-6-[2-(trifluoromethyl)-4-pyridyl]-7H-pyrrolo[2,3-d]pyrimidine], the results for the 50% inhibitory concentration (IC50) (on c-kit mutant D816V; in assay [1]) were 0.0001 to 1 µM and under 10 µM, respectively.

With `Cc1nc(C2CCN(c3ncnc4[nH]c(-c5cccc(C(F)(F)F)c5)cc34)CC2)[nH]c1-c1ccccc1` [P-3098, 4-[4-(4-methyl-5-phenyl-1H-imidazol-2-yl)-1-piperidyl]-6-[3-(trifluoromethyl)phenyl]-7H-pyrrolo[2,3-d]pyrimidine], the IC50 is 0.0001 to 1 µM on c-kit mutant D816V and under 10 µM in assay [1].

For `CCOc1ccc(-c2[nH]c(C3(C)CCN(c4ncnc5[nH]c(C)cc45)CC3)nc2C)cc1C` [P-3099, 4-[4-[5-(4-ethoxy-3-methyl-phenyl)-4-methyl-1H-imidazol-2-yl]-4-methyl-1-piperidyl]-6-methyl-7H-pyrrolo[2,3-d]pyrimidine], the 50% inhibitory concentration (IC50) at c-kit mutant D816V is 0.0001 to 1 µM; in assay [1] it was under 10 µM.

Take `CCc1ccc(-c2[nH]c(C3(C)CCN(c4ncnc5[nH]c(C)cc45)CC3)nc2C)cc1` [P-3101, 4-[4-[5-(4-ethylphenyl)-4-methyl-1H-imidazol-2-yl]-4-methyl-1-piperidyl]-6-methyl-7H-pyrrolo[2,3-d]pyrimidine]: the IC50 at c-kit mutant D816V is 0.0001 to 1 µM; in assay [1], under 10 µM.

As to `COc1ccc(-c2[nH]c(C3(C)CCN(c4ncnc5[nH]c(C)cc45)CC3)nc2C)cc1C` [P-3102, 4-[4-[5-(4-methoxy-3-methyl-phenyl)-4-methyl-1H-imidazol-2-yl]-4-methyl-1-piperidyl]-6-methyl-7H-pyrrolo[2,3-d]pyrimidine], the IC50 at c-kit mutant D816V is 0.0001 to 1 µM; in assay [1] it was under 10 µM.

As for `COc1cc(-c2cc3c(N4CCC(c5nc(C)c(-c6ccc(C)c(OC)c6)[nH]5)CC4)ncnc3[nH]2)ccn1` [P-3104, 4-[4-[5-(3-methoxy-4-methyl-phenyl)-4-methyl-1H-imidazol-2-yl]-1-piperidyl]-6-(2-methoxy-4-pyridyl)-7H-pyrrolo[2,3-d]pyrimidine], the results for the IC50 (against c-kit mutant D816V; in assay [1]) were 0.0001 to 1 µM and under 10 µM, respectively.

On to `COc1cc(-c2[nH]c(C3(C)CCN(c4ncnc5[nH]c(C)cc45)CC3)nc2C)ccc1C` [P-3105, 4-[4-[5-(3-methoxy-4-methyl-phenyl)-4-methyl-1H-imidazol-2-yl]-4-methyl-1-piperidyl]-6-methyl-7H-pyrrolo[2,3-d]pyrimidine], for which the IC50 against c-kit mutant D816V is 0.0001 to 1 µM; in assay [1] it was under 10 µM.

Regarding `COc1cc(-c2[nH]c(C3CCN(c4ncnc5[nH]c(-c6ccc(C#N)cc6)cc45)CC3)nc2C)ccc1C` [P-3106, 4-[4-[4-[5-(3-methoxy-4-methyl-phenyl)-4-methyl-1H-imidazol-2-yl]-1-piperidyl]-7H-pyrrolo[2,3-d]pyrimidin-6-yl]benzonitrile], the figures for the half-maximal inhibitory concentration (IC50) (on c-kit mutant D816V; in assay [1]) were 0.0001 to 1 µM and under 10 µM, respectively.
